Test results published in US20070191324A1, “Methods for treatment or prophylaxis of aldosterone-mediated pathogenic effects in a subject using an epoxy-steroidal aldosterone antagonist” (priority 1999, published 2007).

Legend:
[1] = tested on: L-NAME/Angiotensin II/NaCl-treated rats; experiment: L-NAME/Angiotensin II/NaCl model of cardiac and renal injury (Example A-1); format: in vivo, Male Wistar rats
Experimental: Animals. Male Wistar rats (n=44), weighing 200 to 225 grams, and obtained from Charles River Laboratories (Wilmington, Mass.) were used in the study. All animals were housed in a room lighted 12 hours per day at an ambient temperature of 22±1° C. Animals were allowed one week to recover after arrival and had free access to Purina Lab Chow 5001 (Ralston Purina Inc, St. Louis, Mo.) and tap water until the initiation of the experiment. After initiation of the protocols, animals in all groups were placed in individual metabolic cages, handled and weighed daily. Twenty-four hour fluid intake, food intake and urine output were measured daily. […] On day 14 of L-NAME treatment, animals were decapitated, trunk blood was collected into chilled tubes containing ethylene diamine tetraacetic acid and the heart and kidneys were removed, blotted dry and immediately weighed. […] Drugs. Eplerenone was supplied by G.D. Searle Pharmaceuticals (St. […] Dexamethasone was dissolved in sesame oil and administered as a single subcutaneous dose (12 μg/kg/day) every day. This dose of dexamethasone has been reported to, maintain normal weight gain, glomerular filtration rate, and fasting plasma glucose and insulin levels in adrenalectomized rats. Stanton, B., Giebisch G et al. J. Clin. Invest 1985 75:1317-1326. The experiment was concluded on day 14 of L-NAME treatment. […] (Hou J et al. J. Clin. Invest 1995 96:2469-2477. […] This lower dose induced lesions in stroke-prone spontaneously hypertensive rats. (Rocha R et al. […] Dexamethasone, aldosterone and L-NAME were purchased from Sigma Chemical Co. (St. Louis, Mo.). […] Surgical Procedure. […] Bilateral adrenalectomy was performed using a dorsolumbar approach, making separate incisions on each side. […] No post operative deaths occurred. Assays and Analyses. Systolic blood pressure was measured in awake animals by tail-cuff plethysmography using a Natsume KN-210 manometer and tachometer (Peninsula Laboratories Inc, Belmont, Calif.). Rats were warmed at 37° C. for 10 minutes and allowed to rest quietly in a Lucite chamber before measurement of blood pressure. Urinary protein concentration was determined in urine collected on the last day of the experiment using the sulfosalicylic acid turbidity method. […] Plasma aldosterone concentration was determined using a standard radioimmunoassay-kit from Diagnostic Products Co. (Los Angeles, Calif.). Plasma renin activity (“PRA”) was determined by radioimmunoassay detection of generated angiotensin I (DiaSorin Inc., Stillwater, Minn.). Histology. Hearts were stained with collagen specific dye Sirius red for determination of fibrosis as reported elsewhere. (Young M et al. Am. J. Physiol 1995 269:[…]-[…]). Interstitial collagen was determined using an automated image analyzer. The hearts were also stained with hematoxylin and eosin for light microscopic analysis. Two or three slices of different sections of the heart containing both right and left ventricle were analyzed from each animal. […] Glomerular damage, when present, was characterized as the presence of either segmental or global sclerosis with ischemic or thrombotic changes. Renal arterial and arteriolar damage was categorized as the presence of fibrinoid necrosis of the vascular wall. The renal arterial and arteriolar profiles presenting damage were counted and the number of injured vessels per section was divided by the number of glomeruli in the same section in order to normalize for the amount of tissue examined. […] Statistical analysis. Data were tested for normality using the Kolmogorov-Smirnov test. Systolic blood pressure was analyzed using repeated measures-analysis of variance for time and treatment group. One-way analysis of variance was used for normally distributed data with one grouping variable. Post-hoc analysis was performed using Newman Keuls multiple-comparison test. Data that were not normally distributed were analyzed with the Kruskal-Wallis test. […]

[2] = tested on: saline-loaded adrenalectomized rats treated with aldosterone; experiment: Subcutaneous vs. oral eplerenone in saline-loaded adrenalectomized rats treated with aldosterone (Example A-3); format: in vivo
Experimental: Urinary sodium, potassium and water excretion were measured. The results are expressed as the ratio of excreted urinary sodium to potassium (Na/K)±SEM.

[3] = tested on: patients with mild to moderate hypertension; experiment: Eplerenone/HCTZ dose ranging factorial design study (Example D-2); format: in vivo, human
Experimental: Patients were assessed at weeks 0, 2, 4, and 8. Study assessments at protocol-specified timepoints included blood pressure (BP), heart rate, clinical laboratory analyses, vital signs, physical examinations, 12-lead ECG, and monitoring of adverse events. A total of 614 patients were randomized.

[4] = eplerenone 25, 50 or 200 mg daily, HCTZ 12.5 or 25 mg daily, 8 weeks

COC(=O)[C@@H]1CC2=CC(=O)CC[C@]2(C)[C@@]23O[C@@H]2C[C@@]2(C)[C@@H](CC[C@@]24CCC(=O)O4)[C@H]13 [Eplerenone, Pregn-4-ene-7,21-dicarboxylic acid, 9,11-epoxy-17-hydroxy-3-oxo-, γ-lactone, methyl ester, (7α, 11α, 17β)-]
HW/BW (cardiac hypertrophy index) ([1]; end of experiment (day 14), Epl 100 mg/kg/day p.o., ALDO 40 μg/kg/day in adrenalectomized rats): significantly reduced cardiac hypertrophy
SBP ([1]; end of experiment, Epl 100 mg/kg/day p.o., ALDO 40 μg/kg/day in adrenalectomized rats): not appreciably influenced
urinary protein excretion (24 hour) ([1]; end of two-week treatment, eplerenone 100 mg/kg/day p.o.): prevented the development of proteinuria
cardiac injury / myocardial necrosis (histopathology) ([1]; eplerenone 100 mg/kg/day p.o., vs L-NAME/Angiotensin II/NaCl): markedly reduced
Mean Na/K ([2]; Table A-3A, aldosterone + antagonist 10 mg/100 g rat): 2.17
Mean Na/K ([2]; Table A-3A, aldosterone + antagonist 30 mg/100 g rat): 2.98
Mean Na/K ([2]; Table A-3A, aldosterone + antagonist 100 mg/100 g rat): 3.44
Mean Na/K ([2]; Table A-3B, aldosterone + antagonist 3 mg/100 g rat): 0.90
Mean Na/K ([2]; Table A-3B, aldosterone + antagonist 10 mg/100 g rat): 1.34
Mean Na/K ([2]; Table A-3B, aldosterone + antagonist 30 mg/100 g rat): 1.18
Mean Na/K ([2]; Table A-3B, aldosterone + antagonist 100 mg/100 g rat): 2.10
Mean Na/K ([2]; Table A-3B, aldosterone + antagonist 300 mg/100 g rat): 4.79
Mean Na/K ([2]; Table A-3B, aldosterone + antagonist 1000 mg/100 g rat): 5.70
efficacy of subcutaneous injection versus oral administration ([2]; antagonism of aldosterone-mediated renal effects): Subcutaneous injection provided better efficacy than oral administration
gynecomastia ([3]; eight weeks): Gynecomastia was not observed
safety and tolerability ([3]; eight weeks, monotherapy or in combination with HCTZ): safe and well tolerated
DBP, change from Baseline to the Final Visit [3, 4]: dose-dependent decreases in DBP
SBP, change from Baseline to the Final Visit [3, 4]: dose-dependent decreases in SBP
